Assay results as given in US6900219B2, “ABCA-1 elevating compounds” (CV Therapeutics, Inc., priority 2002, dated 2005).

Tested on: ABCA-1 gene
Test: compounds tested and found to elevate cellular expression of the ABCA-1 gene (Examples 1-6; test not named)
Format: cell-based
Experimental: Activity testing is conducted as described in those patents and patent applications referenced above, and in the Examples below, and by methods apparent to one skilled in the art.

For `CCc1c(C(=O)NC(C)CCCN(CC)CC)cnn1-c1nc(-c2ccc(Br)cc2)cs1` (stereo not drawn) [N-[4-(diethylamino)-1-methylbutyl]{1-[4-(4-bromophenyl)(1,3-thiazol-2-yl)]-5-ethylpyrazol-4-yl}carboxamide], the “cellular expression of the ABCA-1 gene” value was “elevate cellular expression of the ABCA-1 gene”.

`CNC(=O)C(Sc1nnc(NC(=O)c2ccc(C)cc2)s1)C(C)=O` (stereo not drawn) [N-methyl-2-{5-[(4-methylphenyl)carbonylamino](1,3,4-thiadiazol-2-ylthio)}-3-oxobutanamide] was tested, and the “cellular expression of the ABCA-1 gene” value was “elevate cellular expression of the ABCA-1 gene”.

With `CCCc1c(C(=O)N2CCN(C(=O)C(CC)c3ccccc3)C(C)C2)cnn1-c1nc(-c2cccc(OC)c2)cs1` (stereo not drawn) [1-(4-{1-[4-(3-methoxy-phenyl)-thiazol-2-yl]-5-propyl-1H-pyrazole-4-carbonyl}-2-methyl-piperazin-1-yl)-2-phenyl-butan-1-one] the “cellular expression of the ABCA-1 gene” value was “elevate cellular expression of the ABCA-1 gene”.

For `CCOc1ccc2nc(NC(=O)Nc3ccccc3)sc2c1` [N-(6-ethoxybenzothiazol-2-yl)(phenylamino)carboxamide], the “cellular expression of the ABCA-1 gene” value was “elevate cellular expression of the ABCA-1 gene”.

With `COc1cccc(Nc2nc3ccccc3s2)c1` [benzothiazol-2-yl-(3-methoxyphenyl)amine] the “cellular expression of the ABCA-1 gene” value was “elevate cellular expression of the ABCA-1 gene”.

`COc1ccc(/C(N)=N\OC(=O)c2ccccc2OC)cc1` [(1E)-2-amino-1-aza-2-(4-methoxyphenyl)vinyl 2-methoxybenzoate] was tested, and the “cellular expression of the ABCA-1 gene” value was “elevate cellular expression of the ABCA-1 gene”.

In the case of `COc1cc2c(cc1NC(=O)C(C)(C)C)oc1ccccc12` [N-(2-methoxydibenzo[b,d]furan-3-yl)-2,2-dimethylpropanamide], the “cellular expression of the ABCA-1 gene” value is reported as “elevate cellular expression of the ABCA-1 gene”.

For `O=C(NC1=NCCS1)c1cc(C(F)(F)F)cc(C(F)(F)F)c1` [(3,5-bistrifluoromethylphenyl)-N-(1,3-thiazolin-2-yl)carboxamide], the “cellular expression of the ABCA-1 gene” value was “elevate cellular expression of the ABCA-1 gene”.

For “[((2E)-2-pentyl-3-phenylprop-2-enyl)({1-[(4-butylphenyl)carbonyl](4-piperidyl)}methyl)amino]-N-benzamide”, the “cellular expression of the ABCA-1 gene” value was “elevate cellular expression of the ABCA-1 gene”.

With `O=C(NNC(=S)Nc1ccccc1Cl)c1ccccc1Cl` [(2-chlorophenyl)-N-({[(2-chlorophenyl)amino]thioxomethyl}amino)carboxamide] the “cellular expression of the ABCA-1 gene” value was “elevate cellular expression of the ABCA-1 gene”.

`Cc1cccc(C)c1NC(=O)N(Cc1ccccc1)C(C)c1nc2ccccc2c(=O)n1-c1ccc2ccccc2c1` (stereo not drawn) [[(2,6-dimethylphenyl)amino]-N-[(3-(2-naphthyl)-4-oxo(3-hydroquinazolin-2-yl))ethyl]-N-benzylcarboxamide] was tested, and the “cellular expression of the ABCA-1 gene” value was “elevate cellular expression of the ABCA-1 gene”.

With `O=C(Nc1nc2ccccc2s1)c1ccncc1` [N-benzothiazol-2-yl-4-pyridylcarboxamide] the “cellular expression of the ABCA-1 gene” value was “elevate cellular expression of the ABCA-1 gene”.

`N#Cc1ccc(C(=O)Nc2nc(-c3ccccc3)cs2)cc1` [(4-cyanophenyl)-N-(4-phenyl(1,3-thiazol-2-yl))carboxamide] was tested, and the “cellular expression of the ABCA-1 gene” value was “elevate cellular expression of the ABCA-1 gene”.

With `O=C(Nc1nc(-c2ccc(Cl)cc2)cs1)c1ccc(-c2ccccc2)cc1` [N-[4-(4-chlorophenyl)(1,3-thiazol-2-yl)](4-phenylphenyl)carboxamide] the “cellular expression of the ABCA-1 gene” value was “elevate cellular expression of the ABCA-1 gene”.

For `O=C(Cc1cccs1)Nc1nc2ccccc2s1` [N-benzothiazol-2-yl-2-(2-thienyl)acetamide], the “cellular expression of the ABCA-1 gene” value was “elevate cellular expression of the ABCA-1 gene”.

`CCCCCNC(=O)c1cnn(-c2nc(-c3ccc(C)cc3)cs2)c1C` [{5-methyl-1-[4-(4-methylphenyl)(1,3-thiazol-2-yl)]pyrazol-4-yl}-N-pentylcarboxamide] was tested, and the “cellular expression of the ABCA-1 gene” value was “elevate cellular expression of the ABCA-1 gene”.

In the case of `O=C(Nc1ccc(Cl)cc1)c1ccc2ccccc2c1` [N-(4-chlorophenyl)-2-naphthylcarboxamide], the “cellular expression of the ABCA-1 gene” value is reported as “elevate cellular expression of the ABCA-1 gene”.

With `O=C(Nc1nc(-c2ccc3ccccc3c2)cs1)c1ccc(OC(F)(F)F)cc1` [N-(4-(2-naphthyl)(1,3-thiazol-2-yl))[4-(trifluoromethoxy)phenyl]carboxamide] the “cellular expression of the ABCA-1 gene” value was “elevate cellular expression of the ABCA-1 gene”.

`O=C(NC1=NCCS1)c1ccc(Cl)cc1Cl` [(2,4-dichlorophenyl)-N-(1,3-thiazolin-2-yl)carboxamide] was tested, and the “cellular expression of the ABCA-1 gene” value was “elevate cellular expression of the ABCA-1 gene”.

With “2-[(4-methylethylphenyl)carbonylamino]-1,3-thiazoline-4-carboxylic acid” the “cellular expression of the ABCA-1 gene” value was “elevate cellular expression of the ABCA-1 gene”.

With `O=C(CCC1CCCC1)Nc1ccc2c(c1)CCC2` [3-cyclopentyl-N-indan-5-ylpropanamide] the “cellular expression of the ABCA-1 gene” value was “elevate cellular expression of the ABCA-1 gene”.

For `CCOc1ccc(C(=O)N(Cc2c3ccccc3cc3ccccc23)C(=O)Nc2ccccc2F)cc1` [N-(9-anthrylmethyl)(4-ethoxyphenyl)-N-{[(2-fluorophenyl)amino]carbonyl}-carboxamide], the “cellular expression of the ABCA-1 gene” value was “elevate cellular expression of the ABCA-1 gene”.

With `COc1cccc(C(=O)NC2=NCCS2)c1` [(3-methoxyphenyl)-N-(1,3-thiazolin-2-yl)carboxamide] the “cellular expression of the ABCA-1 gene” value was “elevate cellular expression of the ABCA-1 gene”.

`Cc1ccc(NC(=O)Oc2ccc(C3=NCCS3)cc2)cc1` [N-(4-methylphenyl)(4-(1,3-thiazolin-2-yl)phenoxy)carboxamide] was tested, and the “cellular expression of the ABCA-1 gene” value was “elevate cellular expression of the ABCA-1 gene”.

For `O=C(NC1=NCCS1)c1ccc(Cl)cc1` [(4-chlorophenyl)-N-(1,3-thiazolin-2-yl)carboxamide], the “cellular expression of the ABCA-1 gene” value was “elevate cellular expression of the ABCA-1 gene”.

With `O=C(Nc1ccc(F)cc1)c1cc2ccccc2oc1=O` [N-(4-fluorophenyl)(2-oxochromen-3-yl)carboxamide] the “cellular expression of the ABCA-1 gene” value was “elevate cellular expression of the ABCA-1 gene”.

For `O=C1CSC(NC(=O)c2ccc(F)c(F)c2)=N1` [(3,4-difluorophenyl)-N-(4-oxo(1,3-thiazolin-2-yl))carboxamide], the “cellular expression of the ABCA-1 gene” value was “elevate cellular expression of the ABCA-1 gene”.

With `CCOC(=O)C1=C(NCCc2ccccc2)CCN(C(=O)c2ccc(OC)cc2)C1` [ethyl 1-[(4-methoxyphenyl)carbonyl]-4-[(2-phenylethyl)amino]-1,2,5,6-tetrahydropyridine-3-carboxylate] the “cellular expression of the ABCA-1 gene” value was “elevate cellular expression of the ABCA-1 gene”.

In the case of `O=C(Nc1nc(-c2ccccc2)ns1)C1CC1` [cyclopropyl-N-(3-phenyl(1,2,4-thiadiazol-5-yl))carboxamide], the “cellular expression of the ABCA-1 gene” value is reported as “elevate cellular expression of the ABCA-1 gene”.

For `CCOC(=O)C1=C(NCCc2ccccc2)CCN(C(=O)c2ccc([N+](=O)[O-])cc2Cl)C1` [ethyl 1-[(2-chloro-4-nitrophenyl)carbonyl]-4-[(2-phenylethyl)amino]-1,2,5,6-tetrahydropyridine-3-carboxylate], the “cellular expression of the ABCA-1 gene” value was “elevate cellular expression of the ABCA-1 gene”.

With `CC(=O)c1ccc(NC(=O)Nc2cccc(Cl)c2)cc1` [N-(4-acetylphenyl)[(3-chlorophenyl)amino]carboxamide] the “cellular expression of the ABCA-1 gene” value was “elevate cellular expression of the ABCA-1 gene”.

In the case of `COc1cc(OC)cc(C(=O)NC2=NC(=O)CS2)c1` [(3,5-dimethoxyphenyl)-N-(4-oxo(1,3-thiazolin-2-yl))carboxamide], the “cellular expression of the ABCA-1 gene” value is reported as “elevate cellular expression of the ABCA-1 gene”.

For `CC(=O)c1ccc(NC(=O)Nc2ccc(Cl)c(Cl)c2)cc1` [[(4-acetylphenyl)amino]-N-(3,4-dichlorophenyl)carboxamide], the “cellular expression of the ABCA-1 gene” value was “elevate cellular expression of the ABCA-1 gene”.

`O=C(NCCc1ccccn1)c1sc2ccccc2c1Cl` [(3-chlorobenzo[b]thiophen-2-yl)-N-(2-pyridyl)ethyl)carboxamide] was tested, and the “cellular expression of the ABCA-1 gene” value was “elevate cellular expression of the ABCA-1 gene”.

In the case of `CCc1c(C(=O)N2CCN(C(=O)c3ccc4ccccc4c3)C(C)C2)cnn1-c1nc(-c2ccc(Cl)cc2)cs1` (stereo not drawn) [{1-[4-(4-chloro-phenyl)-thiazol-2-yl]-5-ethyl-1H-pyrazol-4-yl}-[3-methyl-4-(naphthalene-2-carbonyl)-piperazin-1-yl]-methanone], the “cellular expression of the ABCA-1 gene” value is reported as “elevate cellular expression of the ABCA-1 gene”.

With `O=C(Nc1ccc2c(c1)OCCO2)Nc1ccc([N+](=O)[O-])cc1Cl` [N-(2H,3H-benzo[e]1,4-dioxin-6-yl)[(2-chloro-4-nitrophenyl)amino]carboxamide] the “cellular expression of the ABCA-1 gene” value was “elevate cellular expression of the ABCA-1 gene”.

With `CCOc1ccc(NC(=O)Nc2ccc(Cl)cc2)cc1` [N-(4-ethoxyphenyl)[(4-chlorophenyl)amino]carboxamide] the “cellular expression of the ABCA-1 gene” value was “elevate cellular expression of the ABCA-1 gene”.

For `O=C(COCc1ccccc1)Nc1ccc2c(c1)OCCO2` [N-(2H,3H-benzo[e]1,4-dioxin-6-yl)-2-(phenylmethoxy)acetamide], the “cellular expression of the ABCA-1 gene” value was “elevate cellular expression of the ABCA-1 gene”.

For `Cc1c(C(=O)NC(=O)Nc2ccccc2Cl)cnn1-c1ccccc1` [N-{[(2-chlorophenyl)amino]carbonyl}(5-methyl-1-phenylpyrazol-4-yl)carboxamide], the “cellular expression of the ABCA-1 gene” value was “elevate cellular expression of the ABCA-1 gene”.

`CC(C)(C)c1ccc(-c2nc3cccc(F)c3c(=O)o2)cc1` [2-[4-(tert-butyl)phenyl]-5-fluorobenzo[d]1,3-oxazin-4-one] was tested, and the “cellular expression of the ABCA-1 gene” value was “elevate cellular expression of the ABCA-1 gene”.

In the case of `Cc1ccccc1NC(=O)N(CC(C)C)C(C)c1nc2ccccc2c(=O)n1-c1ccc2ccccc2c1` (stereo not drawn) [[(2-methylphenyl)amino]-N-(2-methylpropyl)-N-[(3-(2-naphthyl)-4-oxo(3-hydroquinazolin-2-yl))ethyl]carboxamide], the “cellular expression of the ABCA-1 gene” value is reported as “elevate cellular expression of the ABCA-1 gene”.

With `Cc1c(C(=O)NC2CC2)cnn1-c1nc(-c2ccccc2)cs1` [N-cyclopropyl[5-methyl-1-(4-phenyl(1,3-thiazol-2-yl))pyrazol-4-yl]carboxamide] the “cellular expression of the ABCA-1 gene” value was “elevate cellular expression of the ABCA-1 gene”.
